According to ChEMBL document CHEMBL6115036, “Exploration of membrane-active cephalosporin derivatives as potent antibacterial agents against Staphylococcus aureus biofilms and persisters” (Eur J Med Chem, 2025):
Active and inactive are the calls of the source. The calls are words filed in the database; no cut-off is given here.

Columns and labels:
[1] = test system: Staphylococcus aureus; assay: Antibacterial activity against Staphylococcus aureus infected in Kunming mouse model of subcutaneous abscess assessed as reduction in number of bacteria in skin tissue at 5 to 10 mg/kg, sc measured after 48 hrs; assay type: functional, organism-based; details: dose 5-10 mg/kg
[2] = test system: Staphylococcus aureus; assay: Antibacterial activity against Staphylococcus aureus assessed as inhibition of bacterial growth at stationary phase at 32 times MIC incubated for 4 hrs; assay type: functional, organism-based
[3] = test system: Stenotrophomonas maltophilia; assay: Antimicrobial activity against Stenotrophomonas maltophilia incubated for 16 to 18 hrs by broth dilution assay; assay type: functional; details: time 16-18 hrs
[4] = test system: Staphylococcus aureus; assay: Induction of cytoplasmic membrane depolarization in Staphylococcus aureus assessed as increase in fluorescence intensity at 32 ug/ml measured for 20 mins by DiSC3(5) dye based analysis; assay type: functional, organism-based; details: dose 32.0 µg/ml
[5] = test system: Enterococcus faecalis; assay: Antimicrobial activity against Enterococcus faecalis incubated for 16 to 18 hrs by broth dilution assay; assay type: functional; details: time 16-18 hrs
[6] = test system: Staphylococcus aureus; assay: Antibacterial activity against Staphylococcus aureus in presence of 50% FBS; assay type: functional, organism-based
[7] = test system: Staphylococcus aureus; assay: Induction of resistance development in drug-resistant Staphylococcus aureus at sub-MIC measured after 20 passages in presence of ampicillin sodium; assay type: functional, organism-based
[8] = test system: Staphylococcus aureus; assay: Induction of resistance development in drug-resistant Staphylococcus aureus at sub-MIC measured after 20 passages in presence of vancomycin; assay type: functional, organism-based
[9] = test system: Staphylococcus aureus; assay: Antibacterial activity against Staphylococcus aureus infected in Kunming mouse model of subcutaneous abscess assessed as decrease in inflammation in skin tissue at 5 mg/kg, sc measured after 48 hrs by H and E staining based analysis; assay type: functional, organism-based
[10] = test system: Staphylococcus aureus; assay: Induction of intracellular ROS accumulation in Staphylococcus aureus incubated overnight by DCFH-DA dye based analysis; assay type: functional, organism-based
[11] = Toxicity in Kunming mouse model of subcutaneous abscess infected with Staphylococcus aureus assessed as damage in lung at 5 to 10 mg/kg, sc measured after 48 hrs by H and E staining based analysis; assay type: organism-based; details: in vivo, dose 5-10 mg/kg
[12] = test system: Staphylococcus aureus; assay: Inhibition of biofilm formation in Staphylococcus aureus at 16 times MIC incubated for 24 hrs; assay type: functional, organism-based
[13] = test system: Staphylococcus aureus; assay: Bactericidal activity against rifampicin-induced persistant Staphylococcus aureus at 32 times MIC measured for 10 hrs; assay type: functional, organism-based
[14] = test system: Staphylococcus aureus; assay: Inhibition of biofilm formation in Staphylococcus aureus assessed as decrease in bacterial count at 32 times MIC incubated for 24 hrs by CLSM analysis; assay type: functional, organism-based
[15] = test system: Staphylococcus aureus; assay: Induction of resistance development in drug-resistant Staphylococcus aureus at sub-MIC measured after 20 passages in presence of levofloxacin; assay type: functional, organism-based
[16] = Toxicity in Kunming mouse model of subcutaneous abscess infected with Staphylococcus aureus assessed as histopathological abnormalities in kidney at 5 to 10 mg/kg, sc measured after 48 hrs by H and E staining based analysis; assay type: organism-based; details: in vivo, dose 5-10 mg/kg
[17] = test system: Staphylococcus aureus; assay: Inhibition of metabolic activity in Staphylococcus aureus incubated for 6 hrs by Alamar blue assay; assay type: functional, organism-based
[18] = test system: Staphylococcus aureus; assay: Antibacterial activity against Staphylococcus aureus infected in Kunming mouse model of subcutaneous abscess assessed as decrease in neutrophil level in skin tissue at 5 mg/kg, sc measured after 48 hrs by H and E staining based analysis; assay type: functional, organism-based
[19] = test system: Staphylococcus aureus; assay: Induction of inner membrane permeability in Staphylococcus aureus assessed as increase in fluorescence intensity at 32 ug/ml measured for 20 mins by PI dye based analysis; assay type: functional, organism-based; details: dose 32.0 µg/ml
[20] = Toxicity in Kunming mouse model of subcutaneous abscess infected with Staphylococcus aureus assessed as damage in liver at 5 to 10 mg/kg, sc measured after 48 hrs by H and E staining based analysis; assay type: organism-based; details: in vivo, dose 5-10 mg/kg
[21] = test system: Staphylococcus aureus; assay: Bactericidal activity against Staphylococcus aureus assessed as reduction in bacterial colony count at 4 to 8 times MIC incubated for 8 hrs by time kill assay; assay type: functional, organism-based
[22] = Hemolytic activity in sheep red blood cells incubated for 1 hr; assay type: toxicity, cell-based, Ovis aries, Erythrocyte
[23] = test system: Escherichia coli; assay: Antimicrobial activity against Escherichia coli incubated for 16 to 18 hrs by broth dilution assay; assay type: functional; details: time 16-18 hrs
[24] = Toxicity in Kunming mouse model of subcutaneous abscess infected with Staphylococcus aureus assessed as damage in heart at 5 to 10 mg/kg, sc measured after 48 hrs by H and E staining based analysis; assay type: organism-based; details: in vivo, dose 5-10 mg/kg
[25] = test system: Staphylococcus aureus; assay: Induction of resistance development in drug-resistant Staphylococcus aureus at sub-MIC measured after 20 passages in presence of rifampicin; assay type: functional, organism-based
[26] = Toxicity in Kunming mouse model of subcutaneous abscess infected with Staphylococcus aureus assessed as histopathological abnormalities in spleen at 5 to 10 mg/kg, sc measured after 48 hrs by H and E staining based analysis; assay type: organism-based; details: in vivo, dose 5-10 mg/kg
[27] = test system: Staphylococcus aureus; assay: Inhibition of biofilm formation in Staphylococcus aureus assessed as reduction in number of live bacterial count at 16 times MIC incubated for 24 hrs; assay type: functional
[28] = Cytotoxicity against HUVEC cells incubated for 24 hrs by CCK8 assay; assay type: toxicity, cell-based; details: human
[29] = Toxicity in Kunming mouse model of subcutaneous abscess infected with Staphylococcus aureus assessed as damage in kidney at 5 to 10 mg/kg, sc measured after 48 hrs by H and E staining based analysis; assay type: organism-based; details: in vivo, dose 5-10 mg/kg
[30] = Toxicity in Kunming mouse model of subcutaneous abscess infected with Staphylococcus aureus assessed as damage in spleen at 5 to 10 mg/kg, sc measured after 48 hrs by H and E staining based analysis; assay type: organism-based; details: in vivo, dose 5-10 mg/kg
[31] = test system: Staphylococcus aureus; assay: Induction of resistance development in drug-resistant Staphylococcus aureus at sub-MIC measured after 20 passages in presence of ciprofloxacin; assay type: functional, organism-based
[32] = Toxicity in Kunming mouse model of subcutaneous abscess infected with Staphylococcus aureus assessed as histopathological abnormalities in lung at 5 to 10 mg/kg, sc measured after 48 hrs by H and E staining based analysis; assay type: organism-based; details: in vivo, dose 5-10 mg/kg
[33] = Toxicity in Kunming mouse model of subcutaneous abscess infected with Staphylococcus aureus assessed as histopathological abnormalities in heart at 5 to 10 mg/kg, sc measured after 48 hrs by H and E staining based analysis; assay type: organism-based; details: in vivo, dose 5-10 mg/kg
[34] = test system: Staphylococcus aureus; assay: Antibacterial activity against rifampicin-induced persistant Staphylococcus aureus assessed as decrease in CFU at 16 times MIC measured for 10 hrs; assay type: functional
[35] = test system: Staphylococcus aureus; assay: Induction of resistance development in drug-resistant Staphylococcus aureus at sub-MIC measured after 20 passages in presence of cefuroxime sodium; assay type: functional, organism-based
[36] = test system: Staphylococcus aureus; assay: Inhibition of biofilm formation in Staphylococcus aureus assessed as punctate distribution at 32 times MIC incubated for 24 hrs by CLSM analysis; assay type: functional, organism-based
[37] = test system: Staphylococcus aureus; assay: Disruption of cell membrane in Staphylococcus aureus assessed as nucleic acid leakage measured after 2 hrs by fluorescence based analysis; assay type: functional, organism-based; details: dose 8-32 µg/ml
[38] = test system: Staphylococcus aureus; assay: Antibacterial activity against Staphylococcus aureus in presence of 50% sheep plasma; assay type: functional, organism-based
[39] = test system: Staphylococcus aureus; assay: Antimicrobial activity against Staphylococcus aureus incubated for 16 to 18 hrs by broth dilution assay; assay type: functional; details: time 16-18 hrs
[40] = test system: Staphylococcus aureus; assay: Induction of resistance development in drug-resistant Staphylococcus aureus at sub-MIC measured after 20 passages in presence of norfloxacin; assay type: functional, organism-based
[41] = test system: Staphylococcus aureus; assay: Disruption of cell membrane in Staphylococcus aureus assessed as protein leakage measured after 2 hrs by fluorescence based analysis; assay type: functional, organism-based; details: dose 8-32 µg/ml
[42] = test system: Staphylococcus aureus; assay: Antibacterial activity against Staphylococcus aureus infected in Kunming mouse model of subcutaneous abscess assessed as reduction in bacterial load in skin tissue at 10 mg/kg, sc measured after 48 hrs relative to control; assay type: functional; set-up: scale not given: the % may be the effect or the level left
[43] = test system: Staphylococcus aureus; assay: Antibacterial activity against Staphylococcus aureus infected in Kunming mouse model of subcutaneous abscess assessed as surviving bacteria in skin tissue at 10 mg/kg, sc measured after 48 hrs relative to control; assay type: functional
[44] = Toxicity in Kunming mouse model of subcutaneous abscess infected with Staphylococcus aureus assessed as histopathological abnormalities in liver at 5 to 10 mg/kg, sc measured after 48 hrs by H and E staining based analysis; assay type: organism-based; details: in vivo, dose 5-10 mg/kg
[45] = test system: Staphylococcus aureus; assay: Induction of resistance development in Staphylococcus aureus at sub-MIC measured after 20 passages; assay type: functional, organism-based
[46] = test system: Staphylococcus aureus; assay: Bactericidal activity against Staphylococcus aureus measured for 3 to 6 hrs in presence of 50% sheep plasma; assay type: functional, organism-based; details: time 3-6 hrs
[47] = test system: Staphylococcus aureus; assay: Induction of resistance development in drug-resistant Staphylococcus aureus at sub-MIC measured after 20 passages in presence of linezolid; assay type: functional, organism-based
[48] = Cytotoxicity against human HeLa cells incubated for 24 hrs by CCK8 assay; assay type: toxicity, cell-based

Question: What does the source list for CCCCCCCCCCCCCCCC[n+]1ccc(-c2cc[n+](CC3=C(C(=O)[O-])N4C(=O)[C@@H](NC(=O)Cc5ccccc5)[C@H]4SC3)cc2)cc1.O=C([O-])C(F)(F)F?
Answer: Activity [1]: Active; inhibition [2]: Active; MIC [3]: 128 µg/mL; Activity [4]: Active; MIC [5]: 32 µg/mL; Activity [6]: Active; Mic Value Of Compound In Serum Was Equal To Mic In Mhb Medium; Activity [7]: inactive; Activity [8]: inactive; Activity [9]: Active; Activity [10]: Dose-dependent-effect; Activity [11]: Non-toxic; inhibition [12]: Active; Compound Activity Better Than Vancomycin, Rifampicin And Cephalothin; Activity [13]: Active; inhibition [14]: Active; Activity [15]: inactive; Activity [16]: Non-toxic; inhibition [17]: Dose-dependent-effect; Activity [18]: Active; Activity [19]: Active; Activity [20]: Non-toxic; Activity [21]: Active; HC50 at 1 h [22]: 112 µg/mL; MIC [23]: 128 µg/mL; Activity [24]: Non-toxic; Activity [25]: inactive; Activity [26]: Non-toxic; Activity [27]: ~1 10^8CFU/ml; CC50 at 24 h [28]: 15.7 µg/mL; Activity [29]: Non-toxic; Activity [30]: Non-toxic; Activity [31]: inactive; Activity [32]: Non-toxic; Activity [33]: Non-toxic; Activity [34]: ~1 10^5CFU/ml; Activity [35]: inactive; inhibition [36]: Active; Activity [37]: Dose-dependent-effect; Activity [38]: Active; Mic Value Of Compound In Plasma Was Equal To Mic In Mhb Medium; MIC [39]: 4 µg/mL; Activity [40]: inactive; Activity [41]: Dose-dependent-effect; Activity [42]: 99.87%; Activity [43]: 0.13%; Activity [44]: Non-toxic; Activity [45]: inactive; Activity [46]: Active; Activity [47]: inactive; CC50 at 24 h [48]: 34.7 µg/mL
